Experimental data from article PMC11476419, “Analysis of Punicalin and Punicalagin Interaction with PDIA3 and PDIA1” (International Journal of Molecular Sciences, 2024).

Key:
[1] = target: T1, PDIA1 (Homo sapiens, UniProt P07237); experiment: Insulin turbidity assay, disulfide reductase activity; format: biochemical; conditions: insulin substrate, PDIA1 800 nM, reducing conditions
T1 construct: The mature human PDIA1 with an N-terminal His6x-tag was expressed and purified; His6 (N); made in house
Protocol: (§1) To further evaluate the inhibitory effect of punicalin and punicalagin on the enzymatic activity of the two proteins, we performed a different assay using insulin, a physiologically more appropriate substrate. The results obtained are reported in Figure 4 and show again a lesser inhibitory effect of punicalin compared to punicalagin, as observed with the glutathione-based assay.
PDI disulfide reductase activity was assayed by measuring the reduction of insulin catalyzed by PDIs with DTT. A 50 μM stock solution of each PDI was reduced using TCEP (5 mM final concentration) for 90 min at room temperature. […] After incubation, an equal volume of the 2× reaction mixture (consisting of DTT 50 μM and human insulin 0.32 mM) was added. Protein activity was evaluated by monitoring the increase in turbidity of the solutions at 600 nm.
(§2) In both assays, the inhibition constants were extrapolated by GraphPad Prism 8.0 software (GraphPad Software, San Diego, CA, USA), plotting the obtained data as logarithm dose–response curves.

[2] = tested on: PDIA3 in T98G cells; experiment: Cellular distribution of PDIA3 by immunofluorescence; format: cell-based, human; conditions: 5 µM for 48 h and 20 µM for 24 h
Protocol: (§3) Possible changes in the cellular distribution of PDIA3 were previously studied by immunofluorescence assay. Recently, Bilches Medinas et al. reported that a PDIA3 mutation with the loss of functions induced protein aggregation. […] T98G and U87 MG cells were treated with 5 µM and 20 µM of punicalin for 48 h and 24 h, respectively (Figure 8).
(§4) T98G and U-87 MG cells were seeded on coverslips into 6-well plates (200,000 cells/well) and incubated for 24 h and 48 h in the presence of 5 µM and 20 µM punicalagin/punicalin. Cells grown on coverslips were washed with PBS, fixed with 3.7% formaldehyde for 20 min, rinsed with PBS, and then permeabilized with cold methanol (−20 °C) for 5 min. Immunofluorescence analysis was performed according to Paglia et al. using a specific primary antibody against PDIA3 (Millipore, Milan, Italy, cat. ABE1032). Coverslips were mounted on glass microscope slides with DuolinkTM mounting medium and examined using a fluorescence microscope (Leica AF6000 Modular System, Leica, Milan, Italy) with a 63× oil immersion objective. Samples were captured under the same acquisition parameters.

[3] = tested on: PDIA3 in U87 MG cells; experiment: as above; format: cell-based, human; conditions: 5 µM for 48 h and 20 µM for 24 h
Protocol: as §3, §4

[4] = target: T2, PDIA3 (Homo sapiens, UniProt P30101); experiment: Insulin turbidity assay, disulfide reductase activity; format: biochemical; conditions: insulin substrate, PDIA3 1600 nM, reducing conditions
T2 construct: The mature recombinant form (devoid of the N-terminal presence) of the human PDIA3 protein was expressed and purified; made in house
T2 sequence (P30101 25-505): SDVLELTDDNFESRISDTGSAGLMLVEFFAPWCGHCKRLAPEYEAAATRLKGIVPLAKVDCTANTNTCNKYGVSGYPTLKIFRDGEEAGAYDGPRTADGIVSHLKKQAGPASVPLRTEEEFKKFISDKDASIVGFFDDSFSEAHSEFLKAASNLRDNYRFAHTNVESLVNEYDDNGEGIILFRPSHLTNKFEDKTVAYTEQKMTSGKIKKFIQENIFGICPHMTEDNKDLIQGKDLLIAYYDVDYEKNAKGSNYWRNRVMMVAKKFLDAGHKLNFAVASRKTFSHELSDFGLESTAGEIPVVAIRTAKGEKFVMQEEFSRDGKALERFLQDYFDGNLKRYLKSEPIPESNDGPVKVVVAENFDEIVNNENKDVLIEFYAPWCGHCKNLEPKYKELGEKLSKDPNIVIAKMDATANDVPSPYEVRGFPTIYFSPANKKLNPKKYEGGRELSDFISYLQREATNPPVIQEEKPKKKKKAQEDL
Protocol: as §1
PDI disulfide reductase activity was assayed by measuring the reduction of insulin catalyzed by PDIs with DTT. A 50 μM stock solution of each PDI was reduced using TCEP (5 mM final concentration) for 90 min at room temperature. Aliquots of the stock solution were diluted in the incubation mixture (PDIA1 1.6 µM and PDIA3 3.2 µM) containing sodium phosphate buffer (100 mM sodium phosphate, 2 mM EDTA, pH 7.0) added with punicalin/punicalagin (concentration ranging from 0 to 50 µM) and incubated at 37 °C for 1 h. After incubation, an equal volume of the 2× reaction mixture (consisting of DTT 50 μM and human insulin 0.32 mM) was added. Protein activity was evaluated by monitoring the increase in turbidity of the solutions at 600 nm.
as §2

[5] = target: T1, PDIA1; experiment: Glutathione reduction assay (di-E-GSSG), disulfide reductase activity; format: biochemical; conditions: di-E-GSSG substrate, PDIA1 20 nM, reducing conditions
Protocol: (§5) The enzymatic activity of PDIA proteins was evaluated by glutathione reduction and insulin turbidity assays. PDIA1 and PDIA3 are proteins capable of catalyzing oxidation-reduction and isomerization reactions through thiol groups and disulfide bonds. Because the action of punicalagin on the reductase activity of the two proteins was previously evaluated by glutathione reduction assay, the same assay was repeated using punicalin to compare the effect of both molecules on PDIs.
(§6) Di-eosin glutathione disulfide (di-E-GSSG) was synthesized by the reaction of eosin isothiocyanate with oxidized glutathione (GSSG) and used as a fluorogenic substrate of PDIs to monitor disulfide reductase activity according to the method of Raturi and Mutus, with some modifications. Protein activity was evaluated by monitoring the emission fluorescence increase (λem = 545 nm and λex = 525 nm), and the effect of punicalin (concentration ranging from 2 to 50 µM) was tested.
as §2

[6] = target: T2, PDIA3; experiment: as above; format: biochemical; conditions: di-E-GSSG substrate, PDIA3 20 nM, reducing conditions
Protocol: as §5, §6, §2

T1 sequence (P07237 18-508): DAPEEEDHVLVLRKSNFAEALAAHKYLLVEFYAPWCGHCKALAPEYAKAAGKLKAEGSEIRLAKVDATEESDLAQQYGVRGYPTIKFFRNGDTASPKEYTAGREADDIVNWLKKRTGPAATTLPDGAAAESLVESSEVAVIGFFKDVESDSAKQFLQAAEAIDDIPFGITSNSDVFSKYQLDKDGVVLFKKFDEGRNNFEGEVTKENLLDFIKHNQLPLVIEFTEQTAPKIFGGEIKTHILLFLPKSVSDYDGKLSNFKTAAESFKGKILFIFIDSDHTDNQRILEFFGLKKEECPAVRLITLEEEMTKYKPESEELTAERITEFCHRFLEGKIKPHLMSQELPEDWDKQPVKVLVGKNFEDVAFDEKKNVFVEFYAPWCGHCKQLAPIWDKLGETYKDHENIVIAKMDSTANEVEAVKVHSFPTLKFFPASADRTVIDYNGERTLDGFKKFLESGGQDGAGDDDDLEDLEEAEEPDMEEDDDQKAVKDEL

IC50 [1]: > 250 µM
IC50 [4]: 28.7 µM
IC50 [5]: 58.3 µM
IC50 [6]: 10.7 µM
Compound: O=C1OC[C@H]2OC(O)[C@H](O)[C@@H](O)[C@@H]2OC(=O)c2cc(O)c(O)c(O)c2-c2c(O)c(O)c3oc(=O)c4c(c(O)c(O)c5oc(=O)c2c3c54)-c2c1cc(O)c(O)c2O (mixture of isomers) [Punicalin, punicalin]
change in cellular distribution of PDIA3 [2]: marked change in the fluorescence pattern and a cellular redistribution of PDIA3
change in cellular distribution of PDIA3 [3]: marked change in the fluorescence pattern and a cellular redistribution of PDIA3
